# Measurements taken from patent publication US20260132129A1 (Genesis Therapeutics, Inc., priority 2022, published 2026).
# Molecular target: T1, PI3Kα H1047R (T47D cells) (Homo sapiens, UniProt P42336, H1047R)
# T1 construct: endogenous in cells; host or cells: T47D cells
# Assay: PI3Kα cellular assay: pAKT HTRF in T47D cells after EGF stimulation
# Format: cell-based
# Conditions: for IC50: T47D cells (PI3Kα H1047R), pAKT S473 HTRF, EGF stimulation; for T47D pAKT S473 HTRF IC50 (H1047R): T47D (H1047R) selectivity over SKBR3 (WT): selectivity of T47D (H1047R) over SKBR3 (WT) pAKT IC50
# How it was run: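 pAKT read by HTRF in lysates of EGF-stimulated (20 ng/mL, 10 min) T47D H1047R cells. Before stimulation, serum-starved cells (16 h) received compound for 1 h at 37 °C, dosed from 10,000 nM down to 0.5 nM in 3-fold steps.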
# T1 sequence (P42336 whole entry H1047R): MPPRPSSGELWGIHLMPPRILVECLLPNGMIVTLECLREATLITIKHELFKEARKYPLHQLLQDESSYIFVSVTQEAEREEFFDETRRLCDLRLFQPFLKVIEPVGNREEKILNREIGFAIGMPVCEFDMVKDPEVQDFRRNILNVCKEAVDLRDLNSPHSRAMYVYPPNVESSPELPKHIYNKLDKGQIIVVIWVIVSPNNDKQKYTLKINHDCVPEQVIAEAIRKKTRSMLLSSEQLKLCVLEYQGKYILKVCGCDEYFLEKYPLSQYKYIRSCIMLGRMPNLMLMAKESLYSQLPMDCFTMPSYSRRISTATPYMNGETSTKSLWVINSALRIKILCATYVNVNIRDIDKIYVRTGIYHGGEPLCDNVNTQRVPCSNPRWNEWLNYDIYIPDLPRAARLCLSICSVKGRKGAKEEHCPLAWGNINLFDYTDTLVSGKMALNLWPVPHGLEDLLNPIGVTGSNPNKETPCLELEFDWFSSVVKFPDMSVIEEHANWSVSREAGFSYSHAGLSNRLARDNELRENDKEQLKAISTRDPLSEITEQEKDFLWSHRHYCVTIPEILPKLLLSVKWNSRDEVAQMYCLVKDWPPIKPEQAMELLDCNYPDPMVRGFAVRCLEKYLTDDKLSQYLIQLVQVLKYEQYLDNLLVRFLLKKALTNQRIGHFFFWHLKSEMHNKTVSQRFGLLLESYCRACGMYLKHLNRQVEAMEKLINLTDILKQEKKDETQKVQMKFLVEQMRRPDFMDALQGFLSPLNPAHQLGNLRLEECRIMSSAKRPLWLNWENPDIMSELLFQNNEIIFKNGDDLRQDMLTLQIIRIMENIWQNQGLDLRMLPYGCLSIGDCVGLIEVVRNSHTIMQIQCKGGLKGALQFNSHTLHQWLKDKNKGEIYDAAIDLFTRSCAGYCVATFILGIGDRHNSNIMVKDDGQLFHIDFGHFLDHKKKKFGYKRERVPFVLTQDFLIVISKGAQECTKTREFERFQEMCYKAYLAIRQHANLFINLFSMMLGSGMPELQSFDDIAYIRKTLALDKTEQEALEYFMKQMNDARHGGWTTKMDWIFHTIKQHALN
# T1 sequence (P27986 whole entry partner): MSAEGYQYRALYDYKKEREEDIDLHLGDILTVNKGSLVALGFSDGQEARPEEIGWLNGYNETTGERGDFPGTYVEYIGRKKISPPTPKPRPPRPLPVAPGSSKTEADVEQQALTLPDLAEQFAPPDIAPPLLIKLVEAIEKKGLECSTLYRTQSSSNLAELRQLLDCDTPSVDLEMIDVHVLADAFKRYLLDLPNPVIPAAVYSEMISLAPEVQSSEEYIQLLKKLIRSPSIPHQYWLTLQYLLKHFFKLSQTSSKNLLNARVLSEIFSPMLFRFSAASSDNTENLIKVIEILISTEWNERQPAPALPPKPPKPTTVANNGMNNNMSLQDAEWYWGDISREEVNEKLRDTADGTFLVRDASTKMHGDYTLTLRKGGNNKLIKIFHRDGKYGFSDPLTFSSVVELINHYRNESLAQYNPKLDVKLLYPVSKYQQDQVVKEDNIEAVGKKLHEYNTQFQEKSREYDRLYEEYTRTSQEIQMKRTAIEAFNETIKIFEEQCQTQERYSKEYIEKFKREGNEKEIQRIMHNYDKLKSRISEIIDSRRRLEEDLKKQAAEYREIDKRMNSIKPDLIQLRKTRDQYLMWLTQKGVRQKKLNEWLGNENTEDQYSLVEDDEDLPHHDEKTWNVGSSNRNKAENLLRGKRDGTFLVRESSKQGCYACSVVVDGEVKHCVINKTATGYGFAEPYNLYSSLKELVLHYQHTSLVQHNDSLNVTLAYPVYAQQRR
Structure (SMILES),IC50 [nM],T47D pAKT S473 HTRF IC50 (H1047R): T47D (H1047R) selectivity over SKBR3 (WT)
Cc1cc([C@H](C)Nc2ccccc2C(=O)O)c2nc(-c3ccc4c(c3)c(C3CC3)nn4C)cc(=O)n2c1 [Compound 749],> 2000,C (C denotes ≤5-fold)
CC1=NC(C)c2cc(-c3cc(=O)n4cc(C)cc([C@@H](C)Nc5ccccc5C(=O)O)c4n3)ccc21 (some centres unmarked) [Compound 752],–,C (C denotes ≤5-fold)
Cc1cc([C@H](C)Nc2ccccc2C(=O)O)c2nc(C3CCN(S(N)(=O)=O)CC3)cc(=O)n2c1 [Compound 756],> 2000,C (C denotes ≤5-fold)
Cc1cc(C(C)Nc2ccccc2C(=O)O)c2nc(-c3ccc4c(c3)C(C)NN4C)cc(=O)n2c1 (centres unmarked) [Compound 757],> 2000,C (C denotes ≤5-fold)
Cc1cc(C(C)NC2=C(C(=O)O)C=CCC2)c2nc(-c3ccc(CC4CCN(C(=O)C5CC5)CC4)nc3)cc(=O)n2c1 (centres unmarked) [Compound 759],–,C (C denotes ≤5-fold)
Cc1cc([C@H](C)Nc2ccccc2C(=O)O)c2nc(-c3cnc4c(c3)c(C)nn4C)c(C)c(=O)n2c1 [Compound 763],500 to 2000,B (B denotes 20-fold≥value>5-fold)
Cc1cc([C@H](C)Nc2ccccc2C(=O)O)c2nc(-c3ccc4c(c3)CC(=O)N4)cc(=O)n2c1 [Compound 764],–,A (A denotes >20-fold)
CNc1nn(C)c2ccc(-c3cc(=O)n4cc(C)cc([C@H](C)Nc5ccccc5C(=O)O)c4n3)cc12 [Compound 768],100 to 500,A (A denotes >20-fold)
Cc1cc(C(C)Nc2ccccc2C(=O)O)c2nc(-c3ccc4c(c3)c(C(F)F)nn4C)cc(=O)n2c1 (centres unmarked) [Compound 769],100 to 500,A (A denotes >20-fold)
Cc1cc(C(C)Nc2ccccc2C(=O)O)c2nc(-n3cnc4cc(O)ccc43)cc(=O)n2c1 (centres unmarked) [Compound 773],500 to 2000,B (B denotes 20-fold≥value>5-fold)
Cc1cc([C@H](C)Nc2ccccc2C(=O)O)c2nc(-n3cnc4cc(O)ccc43)cc(=O)n2c1 [Compound 774],> 2000,C (C denotes ≤5-fold)
Cc1cc(C(C)Nc2ccccc2C(=O)O)c2nc(N3C[C@H](C)C[C@H](C(F)F)C3)cc(=O)n2c1 (some centres unmarked) [Compound 781],100 to 500,A (A denotes >20-fold)
Cc1cc(C(C)Nc2cccc3c2=NCN=3)c2nc(N3CCOCC3)cc(=O)n2c1 (centres unmarked) [Compound 782],> 2000,C (C denotes ≤5-fold)
Cc1cc([C@@H](C)NC2=C(C(=O)O)C=CCC2)c2nc(-c3ccc(CC4CCN(C(=O)C5CC5)CC4)nc3)cc(=O)n2c1 [Compound 783],> 2000,C (C denotes ≤5-fold)
Cc1cc([C@H](C)NC2=C(C(=O)O)C=CCC2)c2nc(-c3ccc(CC4CCN(C(=O)C5CC5)CC4)nc3)cc(=O)n2c1 [Compound 784],> 2000,C (C denotes ≤5-fold)
Cc1cc([C@@H](C)Nc2ccccc2C(=O)O)c2nc(-c3ccc4c(c(N)nn4C)c3C)c(C)c(=O)n2c1 [Compound 787],> 2000,C (C denotes ≤5-fold)
Cc1cc([C@H](C)Nc2ccccc2C(=O)O)c2nc(-c3ccc4c(c(N)nn4C)c3C)c(C)c(=O)n2c1 [Compound 788],100 to 500,A (A denotes >20-fold)
Cc1cc(C(C)Nc2ccccc2C(=O)O)c2nc(-c3ccc4c(c3)c(=O)[nH]n4C)cc(=O)n2c1 (centres unmarked) [Compound 790],> 2000,C (C denotes ≤5-fold)

# Continued, values first:
IC50 [nM],T47D pAKT S473 HTRF IC50 (H1047R): T47D (H1047R) selectivity over SKBR3 (WT),Structure (SMILES)
< 100,A (A denotes >20-fold),Cc1cc([C@@H](C)Nc2ccccc2C(=O)O)c2nc(-c3ccc4c(c3)c(C3CC3)nn4C)cc(=O)n2c1 [Compound 748]
500 to 2000,B (B denotes 20-fold≥value>5-fold),Cc1cc(C(C)Nc2ccccc2C(=O)O)c2nc(-c3cc(C(N)=O)c4[nH]ccc4c3)cc(=O)n2c1 (centres unmarked) [Compound 753]
> 2000,C (C denotes ≤5-fold),Cc1cc([C@H](C)Nc2ccccc2C(=O)O)c2nc(-c3cc(C(N)=O)c4[nH]ccc4c3)cc(=O)n2c1 [Compound 754]
> 2000,C (C denotes ≤5-fold),Cc1cc([C@@H](C)Nc2ccccc2C(=O)O)c2nc(C3CCN(S(N)(=O)=O)CC3)cc(=O)n2c1 [Compound 755]
100 to 500,A (A denotes >20-fold),CNc1nn(C)c2ccc(-c3cc(=O)n4cc(C)cc(C(C)Nc5ccccc5C(=O)O)c4n3)cc12 (centres unmarked) [Compound 758]
< 100,A (A denotes >20-fold),Cc1cc([C@@H](C)Nc2ccccc2C(=O)O)c2nc(-c3cnc4c(c3)c(C)nn4C)c(C)c(=O)n2c1 [Compound 762]
–,C (C denotes ≤5-fold),Cc1cc([C@H](C)Nc2ccccc2C(=O)O)c2nc(-c3ccc4c(c3)CC(=O)N4)cc(=O)n2c1 [Compound 766]
< 100,A (A denotes >20-fold),CNc1nn(C)c2ccc(-c3cc(=O)n4cc(C)cc([C@@H](C)Nc5ccccc5C(=O)O)c4n3)cc12 [Compound 767]
500 to 2000,B (B denotes 20-fold≥value>5-fold),Cc1cc(C(C)Nc2ccccc2C(=O)O)c2nc(-n3cc(C(N)=O)c4ccccc43)cc(=O)n2c1 (centres unmarked) [Compound 771]
> 2000,C (C denotes ≤5-fold),Cc1cc([C@H](C)Nc2ccccc2C(=O)O)c2nc(-n3cc(C(N)=O)c4ccccc43)cc(=O)n2c1 [Compound 772]
< 100,A (A denotes >20-fold),Cc1cc([C@@H](C)Nc2ccccc2C(=O)O)c2nc(-c3ccc4c(c3)c(C)c(C)n4C)cc(=O)n2c1 [Compound 775]
> 2000,C (C denotes ≤5-fold),CC1=CC2C(=O)C=C([C@H]3CC[C@H](CC4CC[C@H](O)C4)CC3)N=C2C([C@H](C)Nc2ccccc2C(=O)O)=C1 (some centres unmarked) [Compound 778]
< 100,A (A denotes >20-fold),Cc1cc([C@@H](C)Nc2ccccc2C(=O)O)c2nc(-c3ccc4c(c3)c(N)nn4C)c(C)c(=O)n2c1 [Compound 785]
> 2000,C (C denotes ≤5-fold),Cc1cc([C@H](C)Nc2ccccc2C(=O)O)c2nc(-c3ccc4c(c3)c(N)nn4C)cc(=O)n2c1 [Compound 786]
> 2000,C (C denotes ≤5-fold),CCC(=O)Nc1ccc(C(=O)O)c(NC(C)c2cc(C)cn3c(=O)cc(N4CCOCC4)nc23)c1 (centres unmarked) [Compound 791]
